From patent US20260085034A1, “N-(BENZHYDRYL)CYCLOALKYLCARBOXAMIDE DERIVATIVES AS INHIBITORS OF GLYCOGEN SYNTHASE 1 (GYS1) AND METHODS OF USE THEREOF” (Maze Therapeutics, Inc., priority 2022, published 2026) come the findings set out here.

For the assay, the system named is glycogen synthesis in HeLa cells (hGYS1). Nature of the assay: GYS1 cell based assay (glycogen digestion, Glucose-glo). To be noted: Homo sapiens, 24 h incubation, 20 mM glucose, geometric mean of at least 2 runs, read-out: Cellular IC50. From the text: The GYS1 cell based assay is a bioluminescent assay that quantifies the glucose resulting from glycogen digestion; the quantified glucose is an indirect measure of GYS1 glycogen synthesis. Newly synthesized glycogen is digested using Glucoamylase; the resulting glucose is quantified by using the Glucose-glo assay kit from Promega. Glucose-glo works by coupling glucose oxidation and NADH production with a bioluminescent system that is activated with NADH. Glucose is oxidized by Glucose dehydrogenase and the reaction reduces NAD+ to NADH; NADH activates Reductase which reduces a pro-luciferin Reductase Substrate to luciferin. Luciferin is detected in a luciferase reaction using Ultra-Glo rLuciferase and ATP, and the luminesce produced is proportional to the glucose in the sample. The luminescence is measured as a single point read in a plate reader.
Compounds that inhibit the hGYS1 enzyme and, subsequently, the glycogen synthesis in cells, were tested using assay ready plates (white, clear bottom 384 well plates) in a final DMSO reaction volume of 1% DMSO. Compounds in the assay ready plates were mixed with media with no additives, except for 20 mM glucose prior to cell addition. HeLa cells were starved in media with no additives, except for 1× Glutamax for 24 h. Starved HeLa cells were plated, in a 1:1 ratio to the media in the assay ready plate and incubated for 24 h at 37° C. and 5% CO2. Cells were washed in 1×PBS buffer and lysed in lysis buffer containing 50% 1×PBS and 25% 0.3 N HCl of the final volume in the well or reaction volume; cells were incubated with lysis buffer for 10 minutes and quenched with the remaining 25% of the reaction volume that consisted of 450 mM Tris pH 8.0. Lysates were mixed in a 1:1 ratio with Glucoamylase in 100 mM Sodium Acetate buffer, pH 5.3; the mixture was incubated for 1 h at 37° C. The digested lysate was mixed in a 1:1 ratio with Glucose-glo detection mixture as per vendor recommendations (Luciferase detection buffer, Reductase, Reductase substrate, Glucose dehydrogenase, and NAD) in read-out plates (solid white 384-well plates) and incubated for 1 h at RT. The plates were read using a plate reader with luminescence capabilities. Each compound concentration Relative Luminescence Unit (RLU) was averaged and normalized to the average RLU of the positive and negative controls to obtain a percentage inhibition. The normalized data vs. concentration was plotted; to determine the half-maximal concentration (IC50), the Levenberg-Marquardt algorithm was used to fit a Hill equation to the dose response data.
The results are shown in Table 4 below, which reports the IC50 of each compound. Unless otherwise specified, IC50 values are reported as the geometric mean of at least 2 assay runs on separate days. As shown in the table below, the compounds of the present invention are potent inhibitors of human GYS1. […] Each run represents the average of a technical replicate, where each compound was assayed twice in the same plate.

In general, IC50 refers to the concentration at which inhibition is half-maximal. On to `CC(C)c1ccc([C@@H](NC(=O)[C@H]2C[C@@H]2F)c2ccn[nH]2)cc1F` (single isomer, unassigned) [compound 11], for which the IC50 turned out to be 3.28 µM.
